Laboratory results published in patent publication US20250082656A1, “DOSAGE REGIMENS FOR TREATMENT OF DENGUE INFECTION” (Atea Pharmaceuticals, Inc., priority 2022, published 2025).
In brackets after ≈: the same amount, converted by molar mass. Like-named read-outs stand apart in the source and are kept apart here.

Columns and labels:
[1] = Pharmacokinetic study in SAD cohorts; format: in vivo, human; settings: for dose proportionality of plasma exposure: dose range 250 to 1500 mg; for Urine Elimination: following single oral administration of Compound 2 at 250 to 1500 mg; for AUCInf / Cmax / T1/2 / Tmax / AUC(0-inf) / half-life: human plasma; for CL renal: plasma and urine
Description: Pharmacokinetic measurements for FIGS. 11, 12, 13, 14, and 15 were analyzed using LC-MS/MS according to the protocol described herein. Plasma samples were prepared for MS analysis by adding internal standards and extracting with 20 volumes chilled ACN. After vortex (800 rpm for 10 min) and centrifugation (4,000 rpm, 15 min, 4° C.), the supernatants (25 μL) were diluted with an equal volume of H2O, mixed and spun again. After adding internal standards, the PBMC samples (10^6 cells) were lyzed with 300 μL MeOH/H2O (70:30, v/v) and 40 mM dibutylammonium acetate (DBAA), mixed by vortex and centrifuged (12,000 rpm, 15 min, 4° C.). Aliquots of the supernatants (35 μL) were dried under nitrogen and reconstituted in H2O, then mixed and spun again. […] A binary nonlinear gradient with mobile phases A (0.1% formic acid in water) and B (0.1% formic acid in ACN) were used to elute samples at 0.8 mL/min, with a run time of 5 min. […] A binary nonlinear gradient with mobile phases A (0.001% NHr H2O, 0.18 mM DBAA in H2O) and B (10 mM N,N-dimethyl-hexylamine, 3 mM NH4OAc in ACN/H2O (50.50, v/v)) were used to elute samples at 0.5 mL/min, with a run time of 3 min. Standards in 50% MeOH were used for calibration. […] Internal standards (ISS) as described previously (Good et al., Preclinical evaluation of AT-527, a novel guanosine nucleotide prodrug with potent, pan-genotypic activity against hepatitis C virus. PLos One 15:e02271045) were used to correct for variations in recovery.
Data analysis of the pharmacokinetic data generated according to Example 21 and presented in FIGS. 11, 12, 13, 14, and 15 was analyzed according to the procedure described herein. Plasma concentrations of Compound 1 (AT-281), Compound 3 (AT-551) and Compound 6 (AT-273) were subjected to non-compartmental pharmacokinetic analysis using Phoenix WinNonlin software (version 6.3 or above, Pharsight, Mountain View, CA). The linear/log trapezoidal rule was applied in obtaining the PK parameters.

[2] = for AUCtau / Cmax / Tmax: steady-state, human plasma; for AUCtau / Cmax: mean±SD; for Tmax: median (minimum-maximum)
[3] = Plasma PK after single oral dose of AT-752, mice; settings: Mouse, single oral AT-752 420 mg/kg
DENV1 NS5 = DENV1 NS5 (Dengue virus type 1, UniProt P17763); assay: Thermal shift assay, DENV1 NS5; settings: read-out: ΔTM
Sequence of DENV1 NS5 (P17763 2494-3392): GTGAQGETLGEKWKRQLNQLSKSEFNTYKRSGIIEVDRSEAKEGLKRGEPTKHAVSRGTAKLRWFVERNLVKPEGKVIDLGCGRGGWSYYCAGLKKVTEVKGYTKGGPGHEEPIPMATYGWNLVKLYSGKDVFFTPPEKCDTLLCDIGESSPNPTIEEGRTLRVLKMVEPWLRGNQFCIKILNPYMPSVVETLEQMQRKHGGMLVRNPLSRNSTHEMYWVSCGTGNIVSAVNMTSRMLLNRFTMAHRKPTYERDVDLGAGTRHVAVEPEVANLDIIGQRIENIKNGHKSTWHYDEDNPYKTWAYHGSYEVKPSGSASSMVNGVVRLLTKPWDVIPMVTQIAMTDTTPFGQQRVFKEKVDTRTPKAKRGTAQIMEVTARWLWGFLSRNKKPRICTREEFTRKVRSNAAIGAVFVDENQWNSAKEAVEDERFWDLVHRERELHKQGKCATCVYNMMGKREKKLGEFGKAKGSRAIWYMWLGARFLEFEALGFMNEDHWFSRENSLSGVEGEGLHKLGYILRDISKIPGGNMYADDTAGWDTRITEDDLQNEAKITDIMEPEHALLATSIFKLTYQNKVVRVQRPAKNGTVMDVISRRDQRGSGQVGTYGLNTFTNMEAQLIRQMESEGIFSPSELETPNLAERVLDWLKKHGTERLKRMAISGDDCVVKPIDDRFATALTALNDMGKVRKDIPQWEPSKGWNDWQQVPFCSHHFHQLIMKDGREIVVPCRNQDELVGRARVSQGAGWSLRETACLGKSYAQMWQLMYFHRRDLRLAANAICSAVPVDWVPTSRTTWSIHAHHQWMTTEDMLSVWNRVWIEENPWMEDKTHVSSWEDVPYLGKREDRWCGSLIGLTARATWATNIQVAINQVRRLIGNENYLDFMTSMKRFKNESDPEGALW

DENV4 MTase domain = DENV4 MTase domain (Dengue virus type 4, UniProt P09866); assay: Thermal shift assay, DENV4 MTase domain; settings: read-out: ΔTM
Sequence of DENV4 MTase domain (P09866 2489-2751): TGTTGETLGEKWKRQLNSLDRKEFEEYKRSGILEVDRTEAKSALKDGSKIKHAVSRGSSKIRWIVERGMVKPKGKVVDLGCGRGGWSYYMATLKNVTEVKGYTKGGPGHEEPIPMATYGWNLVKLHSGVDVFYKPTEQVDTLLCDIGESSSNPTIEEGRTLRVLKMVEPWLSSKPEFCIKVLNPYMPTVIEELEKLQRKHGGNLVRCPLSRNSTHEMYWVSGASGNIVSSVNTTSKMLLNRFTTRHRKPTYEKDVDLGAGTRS

[4] = In vivo formation of AT-9010 in PBMCs, mice
DENV-2 = assay: CPE (MTT) assay, DENV-2 in human PBMCs and BHK-21 cells; format: cell-based, Dengue virus
Japanese encephalitis = assay: Neutral red assay of virus-induced CPE, JEV; format: cell-based; settings: SA-14, Huh-7, neutral red assay
Dengue-2 (DENV-2) = assay: Virus yield reduction (VYR) assay, DENV-2; format: cell-based
Herpes simplex-1 = assay: Antiviral specificity panel, Herpes simplex-1; format: cell-based; settings: DNA virus, Vero
[5] = Cytotoxicity in HEp2 cells; format: cell-based; settings: human, Table 2, HEp2
Description: To assess the antiviral specificity of Compound 1 (AT-281), serial dilutions were incubated with various host cell lines infected with a panel of DNA and RNA viruses other than flaviviruses. The activity of Compound 1 (AT-281) was measured in infected cells using the neutral red assay to determine the effective concentration required to inhibit viral replication 50% (EC50) (described in Example 3) and the threshold concentration required to obtain a perceptible effect on 50% of the cells incubated without virus (CC50). Compound 1 (AT-281) had no activity against the DNA viruses tested and was only weakly or not active against several RNA viruses (Table 2).

Dengue serotype 3 = assay: In vitro antiviral potency, summary over strains, Dengue serotype 3; format: cell-based; settings: Dengue virus
Human PBMC = settings: Table 1A, human PBMC without virus; highest concentration tested
DENV-1 = assay: microbe, parasite or virus in culture; settings: Dengue virus, DENV1, Huh-7
[6] = single oral Compound 2 250 mg, fasting
[7] = single oral Compound 2 500 mg, fasting
[8] = single oral Compound 2 500 mg, fed
[9] = single oral Compound 2 1000 mg, South/Southeast/East Asian origin
[10] = single oral Compound 2 1000 mg, fasting
[11] = single oral Compound 2 1500 mg, fasting
[12] = both sexes, human, plasma, po, 250 mg, single oral Compound 2 250 mg, fasting
[13] = both sexes, human, plasma, po, 500 mg, single oral Compound 2 500 mg, fasting
[14] = both sexes, human, plasma, po, 500 mg, single oral Compound 2 500 mg, fed
[15] = both sexes, human, plasma, po, 1000 mg, single oral Compound 2 1000 mg, South/Southeast/East Asian origin
[16] = both sexes, human, plasma, po, 1000 mg, single oral Compound 2 1000 mg, fasting
[17] = both sexes, human, plasma, po, 1500 mg, single oral Compound 2 1500 mg, fasting

## C[C@@]1(F)[C@H](O)[C@@H](CO)O[C@H]1n1cnc2c(=O)[nH]c(N)nc21 [Compound 6, 2′-fluoro-2′-C-methylguanosine]
[1]
  dose proportionality of plasma exposure: slightly less than dose-proportional
  Urine Elimination: 6.7-8.8%
[1]; [6]
  AUCInf: 1440 ± 280 ng·h/mL
  Cmax: 91 ± 19 ng/mL
  T1/2: 1150 ± 612 min
  Tmax: 6.0 (3.0-6.0) h
[1]; [7]
  AUCInf: 2390 ± 478 ng·h/mL
  Cmax: 135 ± 25 ng/mL
  T1/2: 834 ± 354 min
  Tmax: 4.0 (3.0-8.0) h
[1]; [8]
  AUCInf: 2990 ± 558 ng·h/mL
  T1/2: 1040 ± 660 min
  Tmax: 6.0 (6.0-8.1) h
[1]; single oral Compound 2 500 mg, fed (high-fat/high-calorie meal)
  Cmax: 175 ± 29 ng/mL
[1]; [9]
  AUCInf: 3830 ± 519 ng·h/mL
  T1/2: 978 ± 180 min
  Tmax: 5.0 (3.1-6.0) h
[1]; [10]
  AUCInf: 4350 ± 1520 ng·h/mL
  Cmax: 241 ± 71 ng/mL
  T1/2: 1570 ± 732 min
  Tmax: 4.1 (4.0-6.3) h
[1]; single oral Compound 2 1000 mg, patients of South/Southeast/East Asian origin
  Cmax: 240 ± 46 ng/mL
[1]; [11]
  AUCInf: 5460 ± 1190 ng·h/mL
  Cmax: 283 ± 32 ng/mL
  T1/2: 1300 ± 372 min
  Tmax: 6.0 (3.2-6.1) h
[1]; human, single oral Compound 2 250 mg, fasting
  CLR: 15.8 ± 2.8 L/h
[1]; human, single oral Compound 2 500 mg, fasting
  CLR: 16.8 ± 7.6 L/h
[1]; human, single oral Compound 2 500 mg, fed
  CLR: 13.4 ± 3.3 L/h
[1]; human, single oral Compound 2 1000 mg, South/Southeast/East Asian origin
  CLR: 18.7 ± 2.1 L/h
[1]; human, single oral Compound 2 1000 mg, fasting
  CLR: 17.1 ± 6.5 L/h
[1]; human, single oral Compound 2 1500 mg, fasting
  CLR: 19.5 ± 4.1 L/h
[2]; BID
  increase of plasma exposure on multiple dosing: ~60%
[2]; QD
  increase of plasma exposure on multiple dosing: approximately 25%
[2]; TID
  increase of plasma exposure on multiple dosing: ~80%
[2]; Compound 2 750 mg BID
  AUCtau: 2680 ± 730 ng·h/mL
  Cmax: 288 ± 58 ng/mL
  Tmax: 3.5 (3.0-4.0) h
[2]; Compound 2 750 mg TID
  AUCtau: 2370 ± 743 ng·h/mL
  Cmax: 330 ± 98 ng/mL
  Tmax: 3.5 (3.0-6.0) h
[2]; Compound 2 1000 mg QD
  AUCtau: 3120 ± 694 ng·h/mL
  Cmax: 241 ± 56 ng/mL
  Tmax: 4.0 (3.0-4.0) h
[3]
  AUC0-24 h: 18.8 ± 6.0 µM·h
  Cmax: 2300 ± 700 nM

## C[C@@]1(F)[C@H](O)[C@@H](COP(=O)(O)OP(=O)(O)OP(=O)(O)O)O[C@H]1n1cnc2c(=O)[nH]c(N)nc21 [Compound 5]
DENV1 NS5
  ΔTm at 100 µM: 6.1 ± 0.1 °C
DENV4 MTase domain
  ΔTm at 100 µM: 2.9 ± 0.1 °C
[4]; loading dose 500 mg/kg then 250 mg/kg 4 h later, 4 h after the second dose
  concentration of AT-9010 in PBMCs: 0.297 pmol/10^6 cells
[4]; loading dose 500 mg/kg then 250 mg/kg 4 h later, 12 h after the second dose
  concentration of AT-9010 in PBMCs: 0.322 pmol/10^6 cells
[4]; single oral dose 50 mg/kg, 12 h
  concentration of AT-9010 in PBMCs: 0.092 pmol/10^6 cells

## CNc1nc(N)nc2c1ncn2[C@@H]1O[C@H](CO[P@](=O)(N[C@@H](C)C(=O)OC(C)C)Oc2ccccc2)[C@@H](O)[C@@]1(C)F [Compound 1, isopropyl ((R)-(((2R,3R,4R,5R)-5-(2-amino-6-(methylamino)-9H-purin-9-yl)-4-fluoro-3-hydroxy-4-methyltetrahydrofuran-2-yl)methoxy)(phenoxy)phosphoryl)-L-alaninate]
DENV-2; DENV-2 clinical isolate, BHK-21, CPE
  EC50: 1050 nM
DENV-2; Dengue virus, DENV2, BHK-21, DENV-2 NGC, BHK-21, CPE read-out
  EC50: 3820 nM
Japanese encephalitis
  EC50: 210 nM
Dengue-2 (DENV-2); DENV2, BHK-21
  EC50: 6500 nM
Dengue-2 (DENV-2); DENV2, Huh-7
  EC50: 640 nM
Dengue-2 (DENV-2); DENV2, read-out: EC90 against Dengue serotype 2
  EC90: ~0.2 µg/mL (≈ 0.344 µM)
Herpes simplex-1
  EC50: > 100000 nM
[5]
  CC50: > 100000 nM
[1]; both sexes, human, po, 250 mg, single oral Compound 2 250 mg, fasting
  CL renal: 125 mL/min
[1]; both sexes, human, po, 500 mg, single oral Compound 2 500 mg, fasting
  CL renal: 182 mL/min
[1]; both sexes, human, po, 500 mg, single oral Compound 2 500 mg, fed
  CL renal: 110 mL/min
[1]; both sexes, human, po, 1000 mg, single oral Compound 2 1000 mg, South/Southeast/East Asian origin
  CL renal: 162 mL/min
[1]; both sexes, human, po, 1000 mg, single oral Compound 2 1000 mg, fasting
  CL renal: 190 mL/min
[1]; both sexes, human, po, 1500 mg, single oral Compound 2 1500 mg, fasting
  CL renal: 138 mL/min
[1]; [12]
  AUC(0-inf): 347 ± 64 ng·h/mL
  half-life: 30 ± 6 min
[1]; both sexes, human, plasma, po, 250 mg, single oral Compound 2 250 mg, fasting, read-out: Cmax
  Cmax: 482 ± 131 ng/mL
[1]; both sexes, human, plasma, po, 250 mg, single oral Compound 2 250 mg, fasting, read-out: Tmax
  Tmax: 30 min
[1]; [13]
  AUC(0-inf): 1110 ± 687 ng·h/mL
  half-life: 30 ± 60 min
[1]; both sexes, human, plasma, po, 500 mg, single oral Compound 2 500 mg, fasting, read-out: Cmax
  Cmax: 1230 ± 1110 ng/mL
[1]; both sexes, human, plasma, po, 500 mg, single oral Compound 2 500 mg, fasting, read-out: Tmax
  Tmax: 30 min
[1]; [14]
  AUC(0-inf): 980 ± 716 ng·h/mL
  half-life: 42 ± 18 min
[1]; both sexes, human, plasma, po, 500 mg, single oral Compound 2 500 mg, fed (high-fat/high-calorie meal), read-out: Cmax
  Cmax: 488 ± 303 ng/mL
[1]; both sexes, human, plasma, po, 500 mg, single oral Compound 2 500 mg, fed, read-out: Tmax
  Tmax: 120 min
[1]; [15]
  AUC(0-inf): 2730 ± 944 ng·h/mL
  half-life: 30 ± 6 min
[1]; both sexes, human, plasma, po, 1000 mg, single oral Compound 2 1000 mg, South/Southeast/East Asian origin, read-out: Tmax
  Tmax: 30 min
[1]; [16]
  AUC(0-inf): 1920 ± 508 ng·h/mL
  half-life: 30 ± 6 min
[1]; both sexes, human, plasma, po, 1000 mg, single oral Compound 2 1000 mg, fasting, read-out: Cmax
  Cmax: 3040 ± 960 ng/mL
[1]; both sexes, human, plasma, po, 1000 mg, single oral Compound 2 1000 mg, fasting, read-out: Tmax
  Tmax: 30 min
[1]; both sexes, human, plasma, po, 1000 mg, single oral Compound 2 1000 mg, patients of South/Southeast/East Asian origin, read-out: Cmax
  Cmax: 3670 ± 1260 ng/mL
[1]; [17]
  AUC(0-inf): 4630 ± 1500 ng·h/mL
  half-life: 36 ± 12 min
[1]; both sexes, human, plasma, po, 1500 mg, single oral Compound 2 1500 mg, fasting, read-out: Cmax
  Cmax: 5050 ± 2080 ng/mL
[1]; both sexes, human, plasma, po, 1500 mg, single oral Compound 2 1500 mg, fasting, read-out: Tmax
  Tmax: 30 min
[1]
  dose proportionality of plasma exposure: greater than dose-proportional manner
  Urine Elimination: < 3%
Dengue serotype 3
  EC50: < 1500 nM
Human PBMC
  CC50: > 85000 nM
[2]; Compound 2 750 mg TID
  Tmax: 0.5 (0.5-1.0) h
DENV-1
  EC50: 570 nM
[3]
  AUC0-24 h: 4.2 ± 0.5 µM·h
  Cmax: 2600 ± 300 nM
  Tmax: 48 ± 18 min
